The values that follow are results of earlier work, collected in paper PMC5117885 (Drug Design, Development and Therapy, 2016).

The conditions of data set [1]: phase 3 ACCELERATE trial.
Assay in data set [2]: not given
The source holds these as a separate data set.

For `CCC(CC)CC1(C(=O)Nc2ccccc2SC(=O)C(C)C)CCCCC1` [Dalcetrapib], the “Effect on HDL-C levels” value is listed as “increased HDL-C levels” and the “Reduction of cardiovascular events compared to placebo group” value was “did not demonstrate a significant reduction of cardiovascular events”.

As to `Cc1cc(C)c2c(c1)[C@@H](N(Cc1cc(C(F)(F)F)cc(C(F)(F)F)c1)c1nnn(C)n1)CCCN2C[C@H]1CC[C@H](C(=O)O)CC1` [Evacetrapib], the Efficacy entry in data set [1] is on record as “did not improve the efficacy”.

With `CCOC(=O)N1c2ccc(C(F)(F)F)cc2[C@@H](N(Cc2cc(C(F)(F)F)cc(C(F)(F)F)c2)C(=O)OC)C[C@H]1CC` [Torcetrapib], in data set [2], the “Effect on blood pressure and aldosterone” value is recorded as “Elevation of BP caused by torcetrapib was associated with a substantial increase of aldosterone”. In addition, in data set [2] (ILLUMINATE trial), the “Effect on HDL-C and LDL-C” value was “HDL-C increase and LDL-C decrease”. The “Risk of death and cardiac events” value in data set [2] (ILLUMINATE trial, patients receiving torcetrapib) is “significantly increased risk of death and cardiac events”.
